According to US20200247815A1, “PYRAZOLYL-CONTAINING TRICYCLIC DERIVATIVE, PREPARATION METHOD THEREFOR AND USE THEREOF” (Jiangsu Hansoh Pharmaceutical Group Co., Ltd., priority 2017, published 2020):

Legend:
ERK-1 kinase = molecular target: T1, ERK-1 kinase (Homo sapiens, UniProt P27361); assay: Inhibition of ERK-1 kinase activity (LANCE Ultra TR-FRET); assay type: biochemical; details: ERK1 enzyme 0.4 nM, ATP 38.15 μM
T1 construct: purchased Invitrogen PV3311
Experimental: (§1) The object of this test example is to determine the inhibition effect of the compound on ERK-1 kinase activity. In vitro ERK-1 kinase analysis was carried out by using LANCE Ultra (Perkin Elmer) method. The reaction (reaction system 10 μL) was conducted by adding 2.5 μL of test compound/DMSO (final 4%, V/V, diluted to 10 concentrations (400 nM to 0.02 nM) using a 1:3 dilution scheme), 5 μL of a mixed solution of ERK1 enzyme (Invitrogen, # PV3311, final concentration: 0.4 nM) and substrate Ulight-MBP peptide (Perkin Elmer, # TRF0109-M, final concentration: 0.5 μM) formulated with a kinase buffer (50 mM Hepes pH 7.4, 10 mM MgCl2, 1 mM EGTA, 0.01% Triton X-100, 2 mM DTT) and 2.5 μL of ATP solution (Invitrogen, # PV3227, final concentration: 38.15 μM) formulated with the same buffer successively to a 384-well plate (Perkin Elmer OPTIPLATE™) and mixing well. The reaction mixture was incubated at room temperature for 60 minutes. The reaction was stopped by adding 1× LANCE Detection buffer (PerkinElmer # CR97-100) diluted with ultra-pure water, mM EDTA (Invitrogen #15575038) and 1 nM Eu-anti-p-MBP (PerkinElmer # TRF0201-M) antibody in 10 μL/well. The plate was incubated at room temperature for 60 minutes. Excitation reading was performed on Synergy H1 Hybird Reader, H1MFD (Biotek) with an excitation wavelength of 320 nm. TR-FRET rate was calculated by dividing the acceptor emission signal (signal value at 665 nM) by the Eu donor emission signal (signal value at 615 nM). The inhibition TR-FRET rate of the well treated by the compound was calculated relative to the Max signal (DMSO control) and Min signal (no enzyme added) control wells on the plate {% inhibition rate=100−[(test compound−Min average)]/(Max average−Min average)×100}. The 10 concentrations of the compound after 4-fold dilution of the reaction system were 100 nM to 0.005 nM. Abs_IC50 value was calculated by using GraphPad prism fits percentage inhibition rate and ten-point concentration data in a 4-parameter non-linear logic formula.

ERK-2 kinase = molecular target: T2, ERK-2 kinase (Homo sapiens, UniProt P28482); assay: Inhibition of ERK-2 kinase activity (LANCE Ultra TR-FRET); assay type: biochemical; details: ERK-2 enzyme 0.08 nM, ATP 38.15 μM
T2 construct: purchased Invitrogen PV3313
Experimental: as §1, with “ERK-2” for “ERK-1”, “ERK-2” for “ERK1”, “PV3313,” for “PV3311,”, “0.08” for “0.4”, “EGTA” for “EGTA,”, “IX” for “1×”

[1] = system: pancreatic cancer tumor cell Mia Paca 2; assay: Inhibition of tumor cell proliferation (CellTiter-Glo); assay type: cell-based; details: Homo sapiens, Miapaca-2 cell, 3-7 days
Experimental: The object of this test example is to determine the inhibition effect of the present compound on tumor cell proliferation activity. The inhibition activity of the compound on tumor cell proliferation was determined by CellTiter-Glo method, and the half inhibitory concentration IC50 of the compound for inhibiting cell proliferation activity was obtained, 50-100 μL of tumor cell suspension was inoculated in a 96-well cell culture plate with a density of 1˜5*10^4 cells/ml. The plate was incubated in an incubator for 16˜24 hours (37° C., 5% CO2). Solutions of test compounds at different concentrations obtained by gradient dilution were added to the cells in the plate. The plate was incubated in an incubator for 3-7 days (37° C., 5% CO2), 50˜100 μL of CellTiter-Glo reagent was added to each well. The plate was shaked for 10 minutes, and left to stand at room temperature for 10 minutes. The value of the chemiluminescence signal was determined by a microplate reader. The inhibition rate was calculated from the value of the chemiluminescence signal. IC50 of the compound was obtained by curve fitting based on the inhibition rate at different concentrations.
The inhibition effect of the present compound on pancreatic cancer tumor cell Mia Paca 2 proliferation activity was determined by the test, and the obtained IC50 value is shown in Table 2.

T1 sequence (P27361 whole entry): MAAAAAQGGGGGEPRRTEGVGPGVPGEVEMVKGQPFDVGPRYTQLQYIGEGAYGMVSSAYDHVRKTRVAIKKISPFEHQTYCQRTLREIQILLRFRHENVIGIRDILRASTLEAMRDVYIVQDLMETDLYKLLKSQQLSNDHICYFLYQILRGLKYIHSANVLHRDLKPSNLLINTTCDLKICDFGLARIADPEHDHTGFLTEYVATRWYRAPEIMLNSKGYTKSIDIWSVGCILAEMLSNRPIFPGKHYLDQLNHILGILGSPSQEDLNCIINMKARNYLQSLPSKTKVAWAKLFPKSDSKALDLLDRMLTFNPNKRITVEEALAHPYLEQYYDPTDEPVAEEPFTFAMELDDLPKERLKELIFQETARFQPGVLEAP
T2 sequence (P28482 whole entry): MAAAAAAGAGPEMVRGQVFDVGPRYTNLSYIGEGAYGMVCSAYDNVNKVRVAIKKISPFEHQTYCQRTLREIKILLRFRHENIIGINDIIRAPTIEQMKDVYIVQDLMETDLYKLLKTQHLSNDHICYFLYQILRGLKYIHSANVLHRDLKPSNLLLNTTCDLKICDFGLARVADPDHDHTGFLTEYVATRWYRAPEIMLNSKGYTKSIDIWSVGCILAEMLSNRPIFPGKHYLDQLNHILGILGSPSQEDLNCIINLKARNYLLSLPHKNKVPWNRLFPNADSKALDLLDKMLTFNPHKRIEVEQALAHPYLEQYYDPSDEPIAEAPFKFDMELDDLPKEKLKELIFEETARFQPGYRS

**Q.** Which IC50 (ERK-1 kinase) does the source give for C[C@@H](NC(=O)c1nc2cc3c(-c4ccncc4)n[nH]c3cc2[nH]1)c1cccc(F)c1 [Example 45, (R)—N-(1-(3-fluorophenyl)ethyl)-3-(pyridin-4-yl)-1,7-dihydroimidazo[4,5-f]indazole-6-carboxamide] here?
**A.** Its IC50 is 0.54 nM.

**Q.** And the IC50 (ERK-2 kinase)?
**A.** Its IC50 is 0.5 nM.

**Q.** What about the IC50 [1] of the same compound?
**A.** Its IC50 is 110 nM.

**Q.** What does the source list for Cc1cc(-c2n[nH]c3cc4[nH]c(C(=O)N[C@H](C)c5ccccc5)nc4cc23)ccn1 [Example 36, (R)-3-(2-methylpyridin-4-yl)-N-(1-phenylethyl)-1,7-dihydroimidazo[4,5-f]indazole-6-carboxamide]?
**A.** IC50 (ERK-1 kinase): 1.08 nM; IC50 (ERK-2 kinase): 1.23 nM; IC50 [1]: 244 nM

**Q.** How did the IC50 (ERK-1 kinase) turn out when O=C(N[C@H](CNC1CC1)c1ccccc1)c1nc2cc3c(-c4ccncc4)n[nH]c3cc2[nH]1 [Example 54, (S)—N-(2-(cyclopropylamino)-1-phenylethyl)-3-(pyridin-4-yl)-1,7-dihydroimidazo[4,5-f]indazole-6-carboxamide] was run?
**A.** Its IC50 is 0.52 nM.

**Q.** And the IC50 (ERK-2 kinase)?
**A.** The IC50 was 0.32 nM.

**Q.** And the IC50 [1]?
**A.** Its IC50 is 309 nM.

**Q.** Which IC50 (ERK-1 kinase) does the source give for COc1cccc([C@@H](C)NC(=O)c2nc3cc4c(-c5ccncc5)n[nH]c4cc3[nH]2)c1 [Example 19, (R)—N-(1-(3-methoxyphenyl)ethyl)-3-(pyridin-4-yl)-1,7-dihydroimidazo[4,5-f]indazole-6-carboxamide] here?
**A.** Its IC50 is 0.35 nM.

**Q.** What about the IC50 (ERK-2 kinase) of the same compound?
**A.** The IC50 was 0.2 nM.

**Q.** And the IC50 [1]?
**A.** Its IC50 is 159 nM.

**Q.** Which results are given for Cc1cccc([C@@H](CO)NC(=O)c2nc3cc4c(-c5ccncc5)n[nH]c4cc3[nH]2)c1 [Example 30, (S)—N-(2-hydroxy-1-(m-tolyl)ethyl)-(pyridin-4-yl)-1,7-dihydroimidazo[4,5-f]indazole-6-carboxamide]?
**A.** IC50 (ERK-1 kinase): 0.19 nM; IC50 (ERK-2 kinase): 0.12 nM; IC50 [1]: 61.6 nM

**Q.** How did the IC50 (ERK-1 kinase) turn out when COC[C@@H](NC(=O)c1nc2cc3c(-c4ccncc4)n[nH]c3cc2[nH]1)c1ccccc1 [Example 13, (S)—N-(2-methoxy-1-phenylethyl)-3-(pyridin-4-yl)-1,7-dihydroimidazo[4,5-f]indazole-6-carboxamide] was run?
**A.** The IC50 was 3.01 nM.

**Q.** What about the IC50 (ERK-2 kinase) of the same compound?
**A.** Its IC50 is 1.39 nM.

**Q.** With CN(NC(=O)c1nc2cc3c(-c4ccncc4)n[nH]c3cc2[nH]1)c1ccccc1 [Example 77, N′-methyl-N′-phenyl-3-(pyridin-4-yl)-1,7-dihydroimidazo[4,5-f]indazole-6-carbohydrazide] as the compound, how does the IC50 (ERK-1 kinase) read?
**A.** The IC50 was 2.18 nM.

**Q.** What about the IC50 (ERK-2 kinase) of the same compound?
**A.** The IC50 was 0.85 nM.

**Q.** How did the IC50 (ERK-1 kinase) turn out when C[C@@H](NC(=O)c1nc2cc3c(-c4ccncc4)n[nH]c3cc2[nH]1)c1ccccn1 [Example 9, (R)—N-(1-(pyridin-2-yl)ethyl)-3-(pyridin-4-yl)-1,7-dihydroimidazo[4,5-f]indazole-6-carboxamide] was run?
**A.** The IC50 was 8.6 nM.

**Q.** What about the IC50 (ERK-2 kinase) of the same compound?
**A.** Its IC50 is 3.13 nM.

**Q.** COc1cc(-c2n[nH]c3cc4[nH]c(C(=O)N[C@H](C)c5ccccc5)nc4cc23)ccn1 [Example 86, (R)-3-(2-methoxypyridin-4-yl)-N-(1-phenylethyl)-1,7-dihydroimidazo[4,5-f]indazole-6-carboxamide] was tested. Which IC50 (ERK-1 kinase) did it give?
**A.** The IC50 was 2.4 nM.

**Q.** What about the IC50 (ERK-2 kinase) of the same compound?
**A.** The IC50 was 1.33 nM.

**Q.** For O=C(CNC(=O)c1nc2cc3c(-c4ccncc4)n[nH]c3cc2[nH]1)c1ccccc1 [Example 72, N-(2-oxo-2-phenylethyl)-3-(pyridin-4-yl)-1,7-dihydroimidazo[4,5-f]indazole-6-carboxamide], which IC50 (ERK-1 kinase) is on record?
**A.** The IC50 was 2.5 nM.

**Q.** What about the IC50 (ERK-2 kinase) of the same compound?
**A.** Its IC50 is 0.24 nM.

**Q.** How did the IC50 (ERK-1 kinase) turn out when CC(C)c1cccc([C@@H](C)NC(=O)c2nc3cc4c(-c5ccncc5)n[nH]c4cc3[nH]2)c1 [Example 98, (R)—N-(1-(3-Isopropylphenyl)ethyl)-3-(pyridin-4-yl)-1,7-dihydroimidazo[4,5-f]indazole-6-carboxamide] was run?
**A.** The IC50 was 3.32 nM.

**Q.** What about the IC50 (ERK-2 kinase) of the same compound?
**A.** The IC50 was 1.02 nM.

**Q.** With Cc1cccc([C@@H](C)NC(=O)c2nc3cc4c(-c5ccncc5)n[nH]c4cc3[nH]2)n1 [Example 47, (R)—N-(1-(6-methylpyridin-2-yl)ethyl)-3-(pyridin-4-yl)-1,7-dihydroimidazo[4,5-f]indazole-6-carboxamide] as the compound, how does the IC50 (ERK-1 kinase) read?
**A.** Its IC50 is 0.49 nM.

**Q.** What about the IC50 (ERK-2 kinase) of the same compound?
**A.** Its IC50 is 0.17 nM.

**Q.** For C[C@@H](NC(=O)c1nc2cc3c(-c4ccncn4)n[nH]c3cc2[nH]1)c1ccccc1 [Example 57, (R)—N-(1-phenylethyl)-3-(pyrimidin-4-yl)-1,7-dihydroimidazo[4,5-f]indazole-6-carboxamide], which IC50 (ERK-1 kinase) is on record?
**A.** Its IC50 is 3.51 nM.

**Q.** And the IC50 (ERK-2 kinase)?
**A.** The IC50 was 1.43 nM.

**Q.** Which IC50 (ERK-1 kinase) does the source give for CC(NC(=O)c1nc2cc3c(-c4ccncc4)n[nH]c3cc2[nH]1)c1cnccn1 (stereo not drawn) [Example 51, N-(1-(pyrazin-2-yl)ethyl)-3-(pyridin-4-yl)-1,7-dihydroimidazo[4,5-f]indazole-6-carboxamide] here?
**A.** The IC50 was 2.42 nM.

**Q.** And the IC50 (ERK-2 kinase)?
**A.** Its IC50 is 0.91 nM.

**Q.** What does the source list for C[C@@H](OC(=O)c1nc2cc3c(-c4ccncc4)n[nH]c3cc2[nH]1)c1ccccc1 [Example 35, (R)-1-phenylethyl 3-(pyridin-4-yl)-1,7-dihydroimidazo[4,5-f]indazole-6-carboxylate]?
**A.** IC50 (ERK-1 kinase): 1.54 nM; IC50 (ERK-2 kinase): 0.75 nM

**Q.** With O=C(c1nc2cc3c(-c4ccncc4)n[nH]c3cc2[nH]1)N1C[C@@H]1c1ccccc1 [Example 65, (S)-(2-Phenylaziridin-1-yl)(3-(pyridin-4-yl)-1,7-dihydroimidazo[4,5-f]indazol-6-yl)methanone] as the compound, how does the IC50 (ERK-1 kinase) read?
**A.** Its IC50 is 3.73 nM.

**Q.** And the IC50 (ERK-2 kinase)?
**A.** Its IC50 is 1.58 nM.

**Q.** For O=C(NNc1ccccc1)c1nc2cc3c(-c4ccncc4)n[nH]c3cc2[nH]1 [Example 76, N′-phenyl-3-(pyridin-4-yl)-1,7-dihydroimidazo[4,5-f]indazole-6-carbohydrazide], which IC50 (ERK-1 kinase) is on record?
**A.** The IC50 was 0.25 nM.

**Q.** And the IC50 (ERK-2 kinase)?
**A.** The IC50 was 0.08 nM.

**Q.** For CC(C)Oc1ccc(-c2n[nH]c3cc4[nH]c(C(=O)N[C@H](C)c5ccccc5)nc4cc23)cn1 [Example 85, (R)-3-(6-isopropoxypyridin-3-yl)-N-(1-phenylethyl)-1,7-dihydroimidazo[4,5-f]indazole-6-carboxamide], which IC50 (ERK-1 kinase) is on record?
**A.** The IC50 was 3.43 nM.

**Q.** What about the IC50 (ERK-2 kinase) of the same compound?
**A.** The IC50 was 3.08 nM.

**Q.** How did the IC50 (ERK-1 kinase) turn out when C[C@@H](NC(=O)c1nc2cc3c(-c4ccncc4)n[nH]c3c(Cl)c2[nH]1)c1ccccc1 [Example 46, (R)-8-chloro-N-(1-phenylethyl)-3-(pyridin-4-yl)-1,7-dihydroimidazo[4,5-f]indazole-6-carboxamide] was run?
**A.** The IC50 was 3.3 nM.

**Q.** And the IC50 (ERK-2 kinase)?
**A.** Its IC50 is 1.7 nM.

**Q.** How did the IC50 (ERK-1 kinase) turn out when CC[C@@H](NC(=O)c1nc2cc3c(-c4ccncc4)n[nH]c3cc2[nH]1)c1ccccc1 [Example 17, (R)—N-(1-phenylpropyl)-3-(pyridin-4-yl)-1,7-dihydroimidazo[4,5-f]indazole-6-carboxamide] was run?
**A.** The IC50 was 2.34 nM.

**Q.** And the IC50 (ERK-2 kinase)?
**A.** Its IC50 is 1.15 nM.
